Legend:
GPR84 F187A [1] = target: T1, GPR84 F187A (Homo sapiens, UniProt Q9NQS5, F187A); assay: BRET β-arrestin-1 recruitment assay, HEK293T cells; type: cell-based; conditions: for EC50: F187A, read-out: β-arrestin-1 pEC50 ± SEM (converted)
T1 construct: FLAG (N); eYFP (C); expressed in transfected cells; host or cells: HEK293T, transient
Experimental: (§1) As a control, cells were transfected with 100:1 ratio of empty plasmid and the appropriate arrestin isoform fused to nano-luciferase. After 24 h, cells were seeded at 50,000 cells per well in poly-D-lysine-coated white 96-well plates and incubated at 37°C overnight. After 24 h, cells were washed twice with Hank’s balanced salt solution (HBSS), pH 7.4, and 10 μl/well of the nano-luciferase substrate coelenterazine-h (Nanolight Technologies) was added to a final concentration of 5 μM. Cells were incubated in the dark for 10 min at 37°C, after which 10 μl/well of the agonist compound was added, and the cells were incubated for another 5 minutes. 15 min after coelenterazine-h addition, reading of emission signals were performed on a PHERAstar FS plate reader (BMG Labtech) at 475 and 535 nm, representing nano-luciferase and eYFP emission signals, respectively. The net bioluminescence resonance energy transfer (BRET) ratio (mBRET) was calculated as follows: mBRET=(BRET^sample−BRET^control)*1000whereBRET=Emission^535nm/Emission^475nm

GPR84-WT [2] = target: T2, GPR84-WT (Homo sapiens, UniProt Q9NQS5); assay: BRET β-arrestin-1 recruitment assay, HEK293T cells; type: cell-based; conditions: for Emax: HEK-293T
T2 construct: FLAG (N); eYFP (C); expressed in transfected cells; host or cells: HEK293T, transient
Experimental: as §1

GPR84 F187A [3] = target: T1, GPR84 F187A; assay: BRET β-arrestin-2 recruitment assay, HEK293T cells; type: cell-based; conditions: for EC50: F187A, read-out: β-arrestin-2 pEC50 ± SEM (converted)
Experimental: as §1

GPR84 L336A = target: T3, GPR84 L336A (Homo sapiens, UniProt Q9NQS5, L336A); assay: BRET β-arrestin-2 recruitment assay, HEK293T cells; type: cell-based; conditions: for EC50: L336A, read-out: β-arrestin-2 pEC50 ± SEM (converted)
T3 construct: FLAG (N); eYFP (C); expressed in transfected cells; host or cells: HEK293T, transient
Experimental: as §1

GPR84-WT [4] = target: T2, GPR84-WT; assay: BRET β-arrestin-2 recruitment assay, HEK293T cells; type: cell-based; conditions: Extended Data Table 4, read-out: β-arrestin-2 pEC50 ± SEM (converted)
Experimental: as §1

GPR84 = GPR84 (Homo sapiens, UniProt Q9NQS5); assay: CHO-K1-based HitHunter cAMP inhibition assay; type: cell-based; conditions: wild type GPR84; for EC50: CHO-K1 cells, forskolin 25 μM, read-out: cAMP pEC50 ± SEM (converted); for Emax: normalised to capric acid (100 μM), read-out: cAMP %Emax ± SEM
Experimental: CHO-K1 cells stably expressing human GPR84 (DiscoverX 95-0158C2) were seeded in 384-well plates at 15,000 cells per well in 20 μL of F12 medium supplemented with 10% fetal bovine serum (FBS), 19 mM HEPES, and 1% penicillin-streptomycin. After overnight incubation at 37 °C and 5% CO2, the medium was removed and replaced with PBS containing 0.1% BSA. Cells were stimulated for 30 min with forskolin (25 μM) and test compounds prepared in Dulbecco’s PBS (DPBS) with 0.1% BSA. Compounds were dissolved in DMSO and diluted appropriately. cAMP levels were quantified using the HitHunter® cAMP Assay for Small Molecules (DiscoverX 90-0075SM2) according to the manufacturer’s protocol. Luminescence was measured 18 h post-assay using a PHERAstar® FS plate reader (BMG Labtech).

[5] = target: Leu336Ala GPR84 (GPR84-Gi2 fusion protein) (Homo sapiens, UniProt Q9NQS5, L336A); assay: Competition binding assay with orthosteric antagonist [3H]140
Experimental: Binding was initiated by the addition of 5 μg membrane protein generated from Flp-In™ T-REx™ cells induced to express the receptor construct of interest with 100 ng/ml doxycycline. Nonspecific binding of the radioligand was determined in the presence of 10 μM compound 837. All assays were performed at 25 °C for 1 h before termination by the addition of ice-cold phosphate-buffered saline (PBS) and vacuum filtration through GF/C glassfibre filter-bottom 96-well microplates using a UniFilter FilterMate Harvester (Revvity). Each well was washed three times with ice-cold PBS and filters were allowed to dry for 2–3 h before addition of 50 μl of Ultima Gold™ XR. Radioactivity was quantified by liquid scintillation spectrometry.

Leu336Ala GPR84 = target: T4, Leu336Ala GPR84 (Homo sapiens, UniProt Q9NQS5, L336A); assay: pThr263/pThr264 immunoblot of immunoprecipitated GPR84-eYFP; type: cell-based; conditions: 1 μM
T4 construct: expressed in transfected cells
Experimental: (§2) eYFP-linked receptor constructs were immunoprecipitated from 200 μl cell lysates using GFP-Trap® agarose beads (Proteintech) according to manufacturer’s instructions. Immunocomplexes were washed three times in washing buffer, resuspended in 100 μl 2 × SDS-PAGE sample buffer and incubated at 60 °C for 10 min. Following centrifugation at 2500g for 5 min, 20 μl of immunoprecipitated proteins was resolved by SDS-PAGE on 4% to 12% BisTris gels. After separation, the proteins were transferred electrophoretically onto nitrocellulose membrane, which was then blocked using 5% bovine serum albumin (BSA) in Tris-buffered saline (TBS, 50 mM Tris-Cl, 150 mM NaCl, pH 7.6) for 1 h at room temperature on an orbital shaker. The membrane was then incubated with appropriate primary antibody in 5% BSA in TBS supplemented with 0.1% Tween (TBS-T) overnight at 4 °C. Anti-pThr^263/pThr^264 antiserum was diluted 1:2000 and anti-GFP was diluted 1:10,000. Subsequently, the membrane was washed (3 × 10 min with TBS-T) and incubated for 2 h with anti-rabbit secondary antibody diluted 1:10,000 in 5% BSA in TBS-T. After washing (3 × 10 min with TBS-T), proteins were detected using an Odyssey imaging system (Licor) according to the manufacturer’s instructions.

Phe187Ala GPR84 = target: T5, Phe187Ala GPR84 (Homo sapiens, UniProt Q9NQS5, F187A); assay: as above; type: cell-based; conditions: 1 μM, compared to OX04954 and OX04539
T5 construct: expressed in transfected cells
Experimental: as §2

GPR84 Y332F = target: T6, GPR84 Y332F (Homo sapiens, UniProt Q9NQS5, Y332F); assay: BRET β-arrestin-1 recruitment assay, HEK293T cells; type: cell-based
T6 construct: FLAG (N); Gαi2-Cys352Ile (fusion partner) (C); expressed in transfected cells
Experimental: as §1

[6] = Extended Data Table 4, read-out: β-arrestin-1 pEC50 ± SEM (converted)
[7] = β-arrestin-1 recruitment, Extended Data Table 6

EC50 (GPR84 Y332F) [nM]	Emax (GPR84 Y332F; HEK-293T) [%]	EC50 (GPR84-WT [2]; β-arrestin-1 recruitment, Extended Data Table 6, read-out: pEC50 ± SEM (converted)) [nM]	SMILES	EC50 (GPR84 F187A [1]) [nM]	efficacy in promoting interaction with β-arrestin-1 (GPR84 F187A [1]; Phe187Ala GPR84, HEK293T)	EC50 (GPR84-WT [2]; [6]) [nM]	Emax (GPR84-WT [2]; [7]) [%]	pEC50 ± SEM (GPR84-WT [2]; [7])	EC50 (GPR84 F187A [3]) [nM]	efficacy in promoting interaction with β-arrestin-2 (GPR84 F187A [3]; Phe187Ala GPR84, HEK293T)	EC50 (GPR84 L336A) [nM]	efficacy in promoting interaction with β-arrestin-2 (GPR84 L336A; Leu336Ala GPR84, HEK293T)	EC50 (GPR84-WT [4]) [nM]	EC50 (GPR84) [nM]	Emax (GPR84) [%]	Ki [5] [nM]	phosphorylation of Thr263 and Thr264 (immunoblot) (Leu336Ala GPR84)	phosphorylation of Thr263 and Thr264 (immunoblot) (Phe187Ala GPR84)
			[O-][n+]1cc(O)cc(CCc2ccc(Cl)c(C(F)(F)F)c2)c1 [OX04529]	3.8	substantial efficacy	49	18 ± 4	7.10 ± 10.11	3.09	substantial efficacy	1.23	full agonist	58.9	0.012	97 ± 0.2	1.51	full agonist	partial effect
50.1	40 ± 4	31.6	Cc1cc(CCCc2cc(O)c[n+]([O-])c2)ccc1Cl [OX04954]	5.75		39.8	71 ± 4		4.07		1.32		28.2	0.0126	98 ± 1.8			

From article doi:10.1101/2025.07.30.667614, “Steric control of signaling bias in the immunometabolic receptor GPR84” (bioRxiv, 2025)
